Patent publication EP0350946A2 (priority 1988, dated 1990)
Where two headings read alike, the source gives them in different places.

What was measured:
Phytophthora infestans = format: in vivo, tomato (var: Ponte Rosa); settings: sprayed the day after inoculation, observed after 5 days, percent disease control
[1] = tested on: Pseudoperonospora cubensis; experiment: Curative effect on downy mildew of cucumber; format: in vivo, cucumber (var: Sagamihanjiro); settings: sprayed the day after inoculation, observed after 8 days, percent disease control
Source text: (§1) Typical test data indicating the excellent fungicidal activity of the amide compounds (I) are shown below. The assessment data are converted to percent disease control. 100 % means no infection; 0 % means that the plant are totally infected compared with the control plant.
A plastic pot was filled with sandy soil, and seeds of cucumber (var: Sagamihanjiro) were sowed therein, followed by cultivation in a greenhouse for 14 days. A spore suspension of Pseudoperonospora cubensis was inoculated by spreading over the seedlings of the test plants, which were then allowed to stand at 20°C overnight under a humid condition. The test compound formulated in a wettable powder according to Formulation Example 1 and diluted with water to a prescribed concentration was thoroughly sprayed over the test plants, which were further grown for 8 days under illumination and observed.

Plasmopara viticola = experiment: Curative effect on downy mildew of grapes; format: in vivo, grapes (var: Bailey-A); settings: sprayed the day after inoculation, observed after 8 days, percent disease control
Source text: as §1
A plastic pot was filled with sandy soil, and seeds of grapes (var: Bailey-A) were sowed therein, followed by cultivation in a greenhouse for 50 days. A spore suspension of Plasmopara viticola was inoculated by spreading over the seedlings at the 6 to 7 leaf-stage of the test plants, which were then allowed to stand at 20°C overnight under a humid condition. The test compound formulated in a wettable powder according to Formulation Example 1 and diluted with water to a prescribed concentration was thoroughly sprayed over the test plants, which were further grown for 8 days under illumination and observed.

C#CCCOC(C#N)NC(=O)c1sc(C)nc1CC (centres unmarked) [Compound 10, 2-(butynyl-3-oxy)-2-(4-ethyl-2-methylthiazole-5-carboxamino)acetonitrile]
Curative effect Tomato (Phytophthora infestans; 100 ppm): 95%
Curative effect Tomato (Phytophthora infestans; 200 ppm): 100%
Curative effect Cucumber ([1]; 100 ppm): 95%
Curative effect Cucumber ([1]; 200 ppm): 100%
Curative effect Grape (Plasmopara viticola; 100 ppm): 90%
Curative effect Grape (Plasmopara viticola; 200 ppm): 100%

CCOC(C#N)NC(=O)c1sc(C)nc1C(C)C (centres unmarked) [Compound 14, 2-ethoxy-2-(4-isopropyl-2-methylthiazole-5-carboxamino)acetonitrile]
Curative effect Tomato (Phytophthora infestans; 100 ppm): 100%
Curative effect Tomato (Phytophthora infestans; 200 ppm): 100%
Curative effect Cucumber ([1]; 100 ppm): 100%
Curative effect Cucumber ([1]; 200 ppm): 100%
Curative effect Grape (Plasmopara viticola; 100 ppm): 90%
Curative effect Grape (Plasmopara viticola; 200 ppm): 100%

CCCc1nc(C)sc1C(=O)NC(C#N)OCC (centres unmarked) [Compound 13, 2-ethoxy-2-(4-n-propyl-2-methylthiazole-5-carboxamino)acetonitrile]
Curative effect Tomato (Phytophthora infestans; 100 ppm): 90%
Curative effect Tomato (Phytophthora infestans; 200 ppm): 95%
Curative effect Cucumber ([1]; 100 ppm): 90%
Curative effect Cucumber ([1]; 200 ppm): 95%
Curative effect Grape (Plasmopara viticola; 200 ppm): 90%

CCOC(C#N)NC(=O)c1sc(C)nc1CC (centres unmarked) [Compound 6, 2-ethoxy-2-(4-ethyl-2-methylthiazole-5-carboxamino)acetonitrile]
Curative effect Tomato (Phytophthora infestans; 100 ppm): 100%
Curative effect Tomato (Phytophthora infestans; 200 ppm): 100%
Curative effect Cucumber ([1]; 200 ppm): 100%
Curative effect Grape (Plasmopara viticola; 100 ppm): 100%
Curative effect Grape (Plasmopara viticola; 200 ppm): 100%

CCc1nc(C)sc1C(=O)NC(C#N)OCCC#N (centres unmarked) [Compound 11, 2-(2-cyanoethoxy)-2-(4-ethyl-2-methylthiazole-5-carboxamino)acetonitrile]
Curative effect Tomato (Phytophthora infestans; 100 ppm): 100%
Curative effect Tomato (Phytophthora infestans; 200 ppm): 100%
Curative effect Cucumber ([1]; 100 ppm): 90%
Curative effect Cucumber ([1]; 200 ppm): 100%
Curative effect Grape (Plasmopara viticola; 100 ppm): 100%
Curative effect Grape (Plasmopara viticola; 200 ppm): 100%

C#CCCOC(C#N)NC(=O)c1sc(C)nc1C (centres unmarked) [Compound 4, 2-(butynyl-3-oxy)-2-(2,4-dimethylthiazole-5-carboxamino)acetonitrile]
Curative effect Tomato (Phytophthora infestans; 100 ppm): 90%
Curative effect Tomato (Phytophthora infestans; 200 ppm): 100%
Curative effect Cucumber ([1]; 200 ppm): 100%
Curative effect Grape (Plasmopara viticola; 200 ppm): 100%

CCCOC(C#N)NC(=O)c1sc(C)nc1CC (centres unmarked) [Compound 7, 2-n-propoxy-2-(4-ethyl-2-methylthiazole-5-carboxamino)acetonitrile]
Curative effect Tomato (Phytophthora infestans; 100 ppm): 100%
Curative effect Tomato (Phytophthora infestans; 200 ppm): 100%
Curative effect Cucumber ([1]; 100 ppm): 90%
Curative effect Cucumber ([1]; 200 ppm): 100%
Curative effect Grape (Plasmopara viticola; 100 ppm): 90%
Curative effect Grape (Plasmopara viticola; 200 ppm): 100%

CCSC(C#N)NC(=O)c1sc(C)nc1CC (centres unmarked) [Compound 12, 2-ethylthio-2-(4-ethyl-2-methylthiazole-5-carboxamino)acetonitrile]
Curative effect Tomato (Phytophthora infestans; 100 ppm): 95%
Curative effect Tomato (Phytophthora infestans; 200 ppm): 100%
Curative effect Cucumber ([1]; 100 ppm): 90%
Curative effect Cucumber ([1]; 200 ppm): 100%
Curative effect Grape (Plasmopara viticola; 100 ppm): 90%
Curative effect Grape (Plasmopara viticola; 200 ppm): 100%

CCOC(C#N)NC(=O)c1sc(C)nc1C (centres unmarked) [Compound 2, 2-ethoxy-2-(2,4-dimethylthiazole-5-carboxamino)acetonitrile]
Curative effect Tomato (Phytophthora infestans; 100 ppm): 95%
Curative effect Tomato (Phytophthora infestans; 200 ppm): 100%
Curative effect Cucumber ([1]; 100 ppm): 95%
Curative effect Cucumber ([1]; 200 ppm): 100%
Curative effect Grape (Plasmopara viticola; 100 ppm): 100%
Curative effect Grape (Plasmopara viticola; 200 ppm): 100%
